Measured values taken from ChEMBL document CHEMBL1140518, “Unique spirocyclopiperazinium salt III: further investigation of monospirocyclopiperazinium (MSPZ) salts as potential analgesics” (Bioorg Med Chem Lett, 2007).

Biological target: Neuronal acetylcholine receptor; alpha4/beta2 (Homo sapiens, UniProt P17787+P43681)
Assay: Inhibition of alpha-4-beta-2 nAChR
Format: protein-complex assay

Chain of Neuronal acetylcholine receptor; alpha4/beta2 (P17787 whole entry): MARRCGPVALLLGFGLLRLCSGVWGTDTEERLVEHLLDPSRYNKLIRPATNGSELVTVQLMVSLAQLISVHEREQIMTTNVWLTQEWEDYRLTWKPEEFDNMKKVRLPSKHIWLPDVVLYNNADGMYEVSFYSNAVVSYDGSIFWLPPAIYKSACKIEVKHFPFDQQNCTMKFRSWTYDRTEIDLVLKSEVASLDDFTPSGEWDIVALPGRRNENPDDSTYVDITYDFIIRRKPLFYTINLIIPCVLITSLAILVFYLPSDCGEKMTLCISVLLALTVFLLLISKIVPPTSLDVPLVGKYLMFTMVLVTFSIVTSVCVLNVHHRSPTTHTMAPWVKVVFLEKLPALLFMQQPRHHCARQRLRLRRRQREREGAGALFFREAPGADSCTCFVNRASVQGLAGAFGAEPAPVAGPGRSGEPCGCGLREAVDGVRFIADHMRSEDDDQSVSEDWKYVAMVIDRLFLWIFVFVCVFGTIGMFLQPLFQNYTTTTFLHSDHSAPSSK
Chain of Neuronal acetylcholine receptor; alpha4/beta2 (P43681 whole entry): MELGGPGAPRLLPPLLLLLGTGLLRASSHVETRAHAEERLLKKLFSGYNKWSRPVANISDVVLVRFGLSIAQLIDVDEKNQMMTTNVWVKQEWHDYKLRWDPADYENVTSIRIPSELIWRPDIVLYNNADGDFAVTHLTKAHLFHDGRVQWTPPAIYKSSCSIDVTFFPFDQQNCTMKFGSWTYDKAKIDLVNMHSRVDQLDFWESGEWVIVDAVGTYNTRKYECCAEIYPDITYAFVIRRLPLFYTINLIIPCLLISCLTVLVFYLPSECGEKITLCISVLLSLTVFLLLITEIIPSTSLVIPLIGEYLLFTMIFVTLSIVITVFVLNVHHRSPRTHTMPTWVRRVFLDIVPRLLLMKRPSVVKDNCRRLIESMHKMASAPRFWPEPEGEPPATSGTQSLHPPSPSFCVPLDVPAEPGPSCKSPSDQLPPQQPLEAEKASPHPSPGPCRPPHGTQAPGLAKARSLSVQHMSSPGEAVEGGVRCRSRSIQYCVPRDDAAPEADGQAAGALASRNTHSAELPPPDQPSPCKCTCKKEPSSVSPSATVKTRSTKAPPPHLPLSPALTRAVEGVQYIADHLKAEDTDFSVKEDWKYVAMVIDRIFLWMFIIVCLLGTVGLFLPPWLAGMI

SMILES	IC50 [µM]
CC1C[N+]2(CCN(CCc3ccccc3)CC2)CC(C)O1.[Cl-] (stereo not given)	> 10

Test system: Mus musculus
Assay: […] in ip dosed nociception mouse model
Format: functional

SMILES	LD50 [µmol/kg]
CC1C[N+]2(CCN(CCc3ccccc3)CC2)CC(C)O1.[Cl-] (stereo not given)	1550

Test system: Mus musculus
Assay: Analgesic activity in mouse assessed as inhibition of acetic acid-induced writhing responses at 31 umol/kg, ip between 5 to 10 mins
Format: functional
Design: scale not given: the % may be the effect or the level left

SMILES	Activity [%]
C[N+]1(C)CCN(c2cccc([N+](=O)[O-])c2)CC1.[I-]	-16
CC1C[N+]2(CCN(CCc3ccc([N+](=O)[O-])cc3)CC2)CC(C)O1.[Cl-] (stereo not given)	-24
COc1ccc(CCN2CC[N+]3(CC2)CC(C)OC(C)C3)cc1.[Cl-] (stereo not given)	-47
CC1C[N+]2(CCN(Cc3ccccc3)CC2)CC(C)O1.[Cl-] (stereo not given)	21
CC1C[N+]2(CCN(CCCc3ccccc3)CC2)CC(C)O1.[Cl-] (stereo not given)	-19
[Br-].c1ccc(N2CC[N+]3(CCCC3)CC2)cc1	20
CC1C[N+]2(CCN(C/C=C/c3ccccc3)CC2)CC(C)O1.[Cl-] (stereo not given)	-43
COc1ccc(N2CC[N+]3(CCCC3)CC2)cc1.[Br-]	56
C=CCN1CC[N+]2(CC1)CC(C)OC(C)C2.[Cl-] (stereo not given)	49
[Cl-].c1ccc(CCN2CC[N+]3(CCCCC3)CC2)cc1	5
[Cl-].c1ccc(CCN2CC[N+]3(CCCCCC3)CC2)cc1	4
CC1C[N+]2(CCN(CCc3ccccc3)CC2)CC(C)O1.[Cl-] (stereo not given)	65
C[N+]1(C)CCN(CCc2ccccc2)CC1.[Cl-]	18
O=[N+]([O-])c1cccc(N2CC[N+]3(CCCC3)CC2)c1.[Br-]	61
O=[N+]([O-])c1ccc(N2CC[N+]3(CCCC3)CC2)cc1.[Br-]	16
C[N+]1(C)CCN(c2cccc([N+](=O)[O-])c2)CC1.[Br-]	22
[Cl-].c1ccc(CCN2CC[N+]3(CCCC3)CC2)cc1	-36
CC1C[N+]2(CCN(CCc3ccccn3)CC2)CC(C)O1.[Cl-] (stereo not given)	-2
